Assay results published in ChEMBL document CHEMBL2074296, “Kinetic analysis of hepatobiliary transport of organic anions in Eisai hyperbilirubinemic mutant rats” (J Pharmacol Exp Ther, 1993).

Columns and labels:
[1] = target: T1, ATP-binding cassette sub-family C member 2 (Rattus norvegicus, UniProt Q63120); experiment: TP_TRANSPORTER: biliary excretion in SD rat; assay type: functional, organism-based, Sprague-Dawley, Bile; details: in vivo
[2] = target: T1, ATP-binding cassette sub-family C member 2; experiment: TP_TRANSPORTER: biliary excretion in EHBR rat; assay type: functional, organism-based, Bile; details: in vivo

T1 sequence (Q63120 whole entry): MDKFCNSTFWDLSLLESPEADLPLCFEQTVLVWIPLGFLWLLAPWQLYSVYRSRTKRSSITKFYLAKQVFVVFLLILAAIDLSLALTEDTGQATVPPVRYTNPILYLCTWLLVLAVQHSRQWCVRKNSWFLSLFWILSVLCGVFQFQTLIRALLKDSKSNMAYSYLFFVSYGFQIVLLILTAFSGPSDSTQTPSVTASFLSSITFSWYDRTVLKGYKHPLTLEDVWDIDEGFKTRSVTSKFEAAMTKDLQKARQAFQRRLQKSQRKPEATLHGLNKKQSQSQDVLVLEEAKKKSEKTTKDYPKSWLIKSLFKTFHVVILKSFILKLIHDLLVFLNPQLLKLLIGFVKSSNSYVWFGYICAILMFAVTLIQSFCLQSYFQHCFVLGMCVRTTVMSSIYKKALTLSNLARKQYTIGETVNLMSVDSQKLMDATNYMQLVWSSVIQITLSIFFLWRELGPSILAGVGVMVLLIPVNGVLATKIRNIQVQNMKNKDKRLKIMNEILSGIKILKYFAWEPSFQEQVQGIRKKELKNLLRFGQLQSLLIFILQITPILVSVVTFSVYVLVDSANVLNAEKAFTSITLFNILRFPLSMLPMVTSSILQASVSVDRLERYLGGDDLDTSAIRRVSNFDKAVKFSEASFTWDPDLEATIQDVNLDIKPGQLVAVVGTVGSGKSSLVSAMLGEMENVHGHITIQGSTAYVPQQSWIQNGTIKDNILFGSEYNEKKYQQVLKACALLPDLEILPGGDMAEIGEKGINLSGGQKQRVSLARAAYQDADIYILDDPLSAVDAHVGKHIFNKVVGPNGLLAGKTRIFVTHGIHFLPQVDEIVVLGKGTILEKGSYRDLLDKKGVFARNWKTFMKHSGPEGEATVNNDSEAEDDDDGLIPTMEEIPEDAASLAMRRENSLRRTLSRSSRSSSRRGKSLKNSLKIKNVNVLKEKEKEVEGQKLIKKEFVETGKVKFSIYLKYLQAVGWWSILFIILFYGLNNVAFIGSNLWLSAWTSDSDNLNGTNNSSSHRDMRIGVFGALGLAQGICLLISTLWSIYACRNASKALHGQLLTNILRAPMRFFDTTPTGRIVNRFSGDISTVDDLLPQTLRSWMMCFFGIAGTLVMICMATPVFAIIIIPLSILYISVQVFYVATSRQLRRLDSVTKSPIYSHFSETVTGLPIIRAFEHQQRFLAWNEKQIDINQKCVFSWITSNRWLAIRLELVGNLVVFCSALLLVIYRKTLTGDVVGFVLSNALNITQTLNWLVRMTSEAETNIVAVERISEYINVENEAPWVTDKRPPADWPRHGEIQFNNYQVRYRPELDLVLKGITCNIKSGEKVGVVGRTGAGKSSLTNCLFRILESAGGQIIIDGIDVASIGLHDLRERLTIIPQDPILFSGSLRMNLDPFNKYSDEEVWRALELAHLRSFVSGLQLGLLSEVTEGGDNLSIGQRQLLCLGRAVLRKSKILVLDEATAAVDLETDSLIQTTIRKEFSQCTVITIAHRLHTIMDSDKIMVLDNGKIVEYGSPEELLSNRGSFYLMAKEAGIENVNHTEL

Activity [1] | Activity [2] | SMILES
substrate [+] | substrate [+] | CO/N=C(\C(=O)N[C@@H]1C(=O)N2C(C(=O)O)=C(CSc3nc(C)c(CC(=O)O)s3)CS[C@H]12)c1csc(N)n1 [CEFODIZIME]
substrate [+] | substrate [+] | O=C1OC(c2ccc(OS(=O)(=O)O)cc2)(c2ccc(OS(=O)(=O)O)cc2)c2c(Br)ccc(Br)c21 [DIBROMOSULFOPHTHALEIN]
substrate [+] | substrate [+] | CC1(C)C(/C=C/C=C/C=C/C=C2/N(CCCCS(=O)(=O)[O-])c3ccc4ccccc4c3C2(C)C)=[N+](CCCCS(=O)(=O)[O-])c2ccc3ccccc3c21.[Na+] [INDOCYANINE GREEN]
